The text below walks through data of US9580449B2, “Compositions and methods for the production of pyrimidine and pyridine compounds with BTK inhibitory activity” (Merck Patent GmbH, priority 2011, dated 2017).

Sequence of full-length human BTK (Q06187 whole entry): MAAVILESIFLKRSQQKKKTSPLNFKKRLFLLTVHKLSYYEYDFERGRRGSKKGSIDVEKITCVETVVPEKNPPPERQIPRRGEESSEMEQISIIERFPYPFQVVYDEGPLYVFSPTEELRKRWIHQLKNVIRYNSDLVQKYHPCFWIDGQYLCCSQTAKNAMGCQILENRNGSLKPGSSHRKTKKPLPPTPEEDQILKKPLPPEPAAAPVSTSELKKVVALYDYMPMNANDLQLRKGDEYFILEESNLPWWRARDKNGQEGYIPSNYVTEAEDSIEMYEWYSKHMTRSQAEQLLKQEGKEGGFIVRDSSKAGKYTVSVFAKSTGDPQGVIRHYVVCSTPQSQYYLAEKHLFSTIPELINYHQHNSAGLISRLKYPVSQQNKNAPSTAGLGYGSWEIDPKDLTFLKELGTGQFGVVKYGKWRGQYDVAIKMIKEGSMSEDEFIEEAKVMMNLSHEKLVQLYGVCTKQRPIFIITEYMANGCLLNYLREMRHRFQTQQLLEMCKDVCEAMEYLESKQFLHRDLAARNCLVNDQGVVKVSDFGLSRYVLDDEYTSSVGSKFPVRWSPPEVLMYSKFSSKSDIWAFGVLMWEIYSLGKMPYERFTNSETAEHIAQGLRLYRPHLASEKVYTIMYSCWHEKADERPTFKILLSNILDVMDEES

The test concerns the target full-length human BTK (Homo sapiens (Human), UniProt Q06187). The test can be described thus: BTK IC50 enzyme assay (microfluidic off-chip mobility shift kinase assay). The test is classed as biochemical. The following applies: incubated for 90 min. at 27 C; read-out: Time Dependent BTK Enzyme Assay IC50. The method in brief: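 Read-out separates phosphorylated peptide product from substrate by charge/mass in a mobility shift format with full-length human BTK.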
Consider `CN(C)C/C=C/C(=O)N1CCC(F)(CNc2ncnc(N)c2-c2ccc(Oc3ccccc3)cc2)CC1` [A227, (E)-1-(4-(((6-amino-5-(4-phenoxyphenyl)pyrimidin-4-yl)amino)methyl)-4-fluoropiperidin-1-yl)-4-(dimethylamino)but-2-en-1-one], for which the IC50 is less than 100 nM.

On to `CN(C)C/C=C/C(=O)N[C@H]1C[C@H](Nc2ncnc(N)c2-c2ccc(Oc3ccccc3)cc2)C1` [A228, (E)-N-(1,3-trans-3-((6-amino-5-(4-phenoxyphenyl)pyrimidin-4-yl)amino)cyclobutyl)-4-(dimethylamino)but-2-enamide], for which the IC50 is less than 1000 nM.

As to `Nc1ncnc(NCC2(F)CCN(C(=O)CCN3CCCCC3)CC2)c1-c1ccc(Oc2ccccc2)cc1` [A235, 1-(4-(((6-amino-5-(4-phenoxyphenyl)pyrimidin-4-yl)amino)methyl)-4-fluoropiperidin-1-yl)-3-(piperidin-1-yl)propan-1-one], the IC50 was more than 1000 nM.

On to `C=CC(=O)Nc1cccc(-c2c(N)ncnc2Nc2ccc(Oc3ccccc3)cc2)c1` [A241, N-(3-(4-amino-6-((4-phenoxyphenyl)amino)pyrimidin-5-yl)phenyl)acrylamide], for which the IC50 was less than 100 nM.

For `C=CC(=O)Nc1cccc(-c2c(Oc3ccc(Oc4ccccc4)cc3)ccnc2N)c1` [A243, N-(3-(2-amino-4-(4-phenoxyphenoxy)pyridin-3-yl)phenyl)acrylamide], the IC50 is less than 100 nM.

Consider `C=CC(=O)Nc1cccc(Oc2ccnc(N)c2-c2ccc(Oc3ccccc3)cc2)c1` [A244, N-(3-((2-amino-3-(4-phenoxyphenyl)pyridin-4-yl)oxy)phenyl)acrylamide], for which the IC50 was less than 100 nM.

For `CN(C)C/C=C/C(=O)Nc1cccc(-c2c(N)ncnc2Oc2ccc(Oc3ccccc3)cc2)c1` [A248, (E)-N-(3-(4-amino-6-(4-phenoxyphenoxy)pyrimidin-5-yl)phenyl)-4-(dimethylamino)but-2-enamide], the 50% inhibitory concentration (IC50) is less than 100 nM.

Consider `C=CC(=O)Nc1cccc(Oc2ncnc(N)c2-c2ccc(OCc3ccccc3)cc2)c1` [A249, N-(3-((6-amino-5-(4-(benzyloxy)phenyl)pyrimidin-4-yl)oxy)phenyl)acrylamide], for which the IC50 is less than 100 nM.

As to `C=CC(=O)Nc1cccc(Oc2ncnc(N)c2-c2ccc(OCc3ccccc3OC)cc2)c1` [A254, N-(3-((6-amino-5-(4-((2-methoxybenzyl)oxy)phenyl)pyrimidin-4-yl)oxy)phenyl)acrylamide], the half-maximal inhibitory concentration (IC50) was less than 100 nM.

As to `C=CC(=O)Nc1cccc(Oc2ncnc(N)c2-c2ccc(OCc3ccccc3)c(OC)c2)c1` [A256, N-(3-((6-amino-5-(4-(benzyloxy)-3-methoxyphenyl)pyrimidin-4-yl)oxy)phenyl)acrylamide], the IC50 was less than 100 nM.

With `C=CC(=O)Nc1cccc(Oc2ncnc(N)c2-c2ccc(OCc3ccccc3)c(F)c2F)c1` [A257, N-(3-((6-amino-5-(4-(benzyloxy)-2,3-difluorophenyl)pyrimidin-4-yl)oxy)phenyl)acrylamide], the 50% inhibitory concentration (IC50) is less than 100 nM.

Turning to `C=CC(=O)Nc1cccc(Oc2ncnc(N)c2-c2ccc(OCc3ccccc3)nc2)c1` [A259, N-(3-((6-amino-5-(6-(benzyloxy)pyridin-3-yl)pyrimidin-4-yl)oxy)phenyl)acrylamide], the IC50 was less than 100 nM.

On to `C=CC(=O)Nc1cccc(Oc2ncnc(N)c2-c2ccc(OCc3cccc(F)c3)cc2)c1` [A260, N-(3-((6-amino-5-(4-((3-fluorobenzyl)oxy)phenyl)pyrimidin-4-yl)oxy)phenyl)acrylamide], for which the IC50 is less than 100 nM.

Consider `C=CC(=O)Nc1cccc(Oc2ncnc(N)c2-c2cnc(OCc3ccccc3)nc2)c1` [A261, N-(3-((6-amino-2′-(benzyloxy)-[5,5′-bipyrimidin]-4-yl)oxy)phenyl)acrylamide], for which the IC50 was less than 100 nM.

Take `C=CC(=O)N1CC=C(c2c(N)ncnc2Oc2ccc(Oc3ccccc3)cc2)CC1` [A263, 1-(4-(4-amino-6-(4-phenoxyphenoxy)pyrimidin-5-yl)-5,6-dihydropyridin-1(2H)-yl)prop-2-en-1-one]: the IC50 is less than 1000 nM.

Consider `C=CC(=O)Nc1cccc(Oc2ncnc(N)c2-c2ccc(OCc3ccc(OC)cc3)cc2)c1` [A264, N-(3-((6-amino-5-(4-((4-methoxybenzyl)oxy)phenyl)pyrimidin-4-yl)oxy)phenyl)acrylamide], for which the IC50 was less than 100 nM.

For `Nc1ncnc(Oc2cccc(NC(=O)/C=C/CN3CCOCC3)c2)c1-c1ccc(Oc2ccccc2)cc1` [A265, (E)-N-(3-((6-amino-5-(4-phenoxyphenyl)pyrimidin-4-yl)oxy)phenyl)-4-morpholinobut-2-enamide], the half-maximal inhibitory concentration (IC50) is less than 100 nM.

Consider `C=CC(=O)Nc1cccc(-c2cnccc2Nc2ccc(Oc3ccccc3)cc2)c1` [A267, N-(3-(4-((4-phenoxyphenyl)amino)pyridin-3-yl)phenyl)acrylamide], for which the IC50 is less than 100 nM.

On to `C=CC(=O)Nc1cccc(Oc2ncnc(N)c2-c2ccc(Oc3ccccc3)nc2)c1` [A268, N-(3-((6-amino-5-(6-phenoxypyridin-3-yl)pyrimidin-4-yl)oxy)phenyl)acrylamide], for which the IC50 is less than 100 nM.

With `C=CC(=O)N1CCCC(Nc2ncnc(N)c2-c2ccc(OCc3ccccc3)cc2)C1` (stereo not shown) [A269, 1-(3-((6-amino-5-(4-(benzyloxy)phenyl)pyrimidin-4-yl)amino)piperidin-1-yl)prop-2-en-1-one], the IC50 was less than 100 nM.

Turning to `C=CC(=O)Nc1cccc(Oc2ccncc2-c2ccc(Oc3ccccc3)cc2)c1` [A270, N-(3-((3-(4-phenoxyphenyl)pyridin-4-yl)oxy)phenyl)acrylamide], the IC50 is less than 100 nM.

With `C=CC(=O)Nc1cccc(Oc2nc(N)ncc2-c2ccc(Oc3ccccc3)cc2)c1` [A271, N-(3-((2-amino-5-(4-phenoxyphenyl)pyrimidin-4-yl)oxy)phenyl)acrylamide], the IC50 is less than 100 nM.

Consider `C=CC(=O)Nc1cccc(-c2c(Oc3ccc(Oc4ccccc4)cc3)ccnc2C(N)=O)c1` [A272, 3-(3-acrylamidophenyl)-4-(4-phenoxyphenoxy)picolinamide], for which the IC50 was less than 100 nM.

Take `C=CC(=O)N1CCC=C(c2c(N)ncnc2Nc2ccc(Oc3ccccc3)cc2)C1` [A273, 1-(3-(4-amino-6-((4-phenoxyphenyl)amino)pyrimidin-5-yl)-5,6-dihydropyridin-1(2H)-yl)prop-2-en-1-one]: the IC50 is less than 100 nM.

Regarding `Nc1ncnc(Oc2ccc(Oc3ccccc3)cc2)c1-c1cccc(NC(=O)/C=C/CN2CCOCC2)c1` [A274, (E)-N-(3-(4-amino-6-(4-phenoxyphenoxy)pyrimidin-5-yl)phenyl)-4-morpholinobut-2-enamide], the IC50 was less than 100 nM.

Regarding `C=CC(=O)Nc1cccc(Oc2ncnc(N)c2-c2ccc(F)c(OC)c2)c1` [A277, N-(3-((6-amino-5-(4-fluoro-3-methoxyphenyl)pyrimidin-4-yl)oxy)phenyl)acrylamide], the IC50 was less than 100 nM.

As for `C=CC(=O)Nc1cccc(Oc2ncnc(N)c2-c2ccc(C(C)(C)O)cc2)c1` [A278, N-(3-((6-amino-5-(4-(2-hydroxypropan-2-yl)phenyl)pyrimidin-4-yl)oxy)phenyl)acrylamide], the IC50 is less than 100 nM.

Regarding `C=CC(=O)N1CCC=C(c2c(N)ncnc2Oc2ccc(Oc3ccccc3)cc2)C1` [A279, 1-(3-(4-amino-6-(4-phenoxyphenoxy)pyrimidin-5-yl)-5,6-dihydropyridin-1(2H)-yl)prop-2-en-1-one], the IC50 is less than 100 nM.

A word on the IC50: it is the point on the concentration scale where inhibition reaches its midpoint.
